Source: patent US9079913B2, “Spiro-oxindole MDM2 antagonists” (The Regents of the University of Michigan, priority 2009, dated 2015)
Values joined by “and” are separate entries in the source; they are usually repeats but may differ in a detail not shown here. Equal entries are not always repeated.

Tests used:
[1] = Pharmacokinetic studies in rats; type: in vivo, rat; details: for Plasma Concentration: male rat, animals and Mean
Experimental: Pharmacokinetic studies on MDM2 inhibitors were carried out in rat. For comparison, the MDM2 inhibitor, AT-219, was also studied.

[2] = Metabolites in rat plasma; type: in vivo; details: rats, MI-219 i.v. 5 mg/kg
Experimental: Plasma was harvested by centrifuging the blood at 13000 rpm for 5 min at 4° C. and stored frozen at −80±10° C. until analysis.
Based on the similarities and difference among their mass spectra, the possible fragmentation pathways of protonated MI-219 and several lead compounds were proposed. Three characteristic product ions were selected to generate 240 ion channels for MRM screening by using Metabolite ID software (Applied Biosystems), including 40 common biotransformation processes. To search all the metabolites, two other scan modes, EMS full scan and precursor scan were also conducted. Only the components detected in the sample and absent in all the control samples were regarded as possible metabolites. To identify the possible metabolites, both the sample and controls were injected on the LC-MS for EPI and MS^3 scans to obtain their MS^2 and MS^3 spectra.

[3] = Microsomal stability study, negative control incubation; type: in vitro ADME
[4] = In vitro microsomal stability, rat; type: in vitro ADME; details: for Microsomal stability, % remaining: Rat microsomes
[5] = rats, IV 5 mg/kg, animals and MEAN
[6] = rats, IV 5 mg/kg, animals and MEAN, mean
[7] = rats, PO 25 mg/kg, animals and MEAN

## MI-219
[1]; PO 25 mg/kg, 1 hr, mean
  Plasma Concentration: 2612.60 ng/mL
[1]; PO 25 mg/kg, 2 hr
  Plasma Concentration: 1064.21 ng/mL and 1534.41 ng/mL and 1342.18 ng/mL
[1]; PO 25 mg/kg, 2 hr, mean
  Plasma Concentration: 1313.60 ng/mL
[1]; PO 25 mg/kg, 4 hr
  Plasma Concentration: 296.644 ng/mL and 223.937 ng/mL and 407.415 ng/mL
[1]; PO 25 mg/kg, 4 hr, mean
  Plasma Concentration: 309.33 ng/mL
[1]; PO 25 mg/kg, 6 hr
  Plasma Concentration: 103.285 ng/mL and 90.8093 ng/mL and 131.398 ng/mL
[1]; PO 25 mg/kg, 6 hr, mean
  Plasma Concentration: 108.50 ng/mL
[1]; PO 25 mg/kg, 8 hr
  Plasma Concentration: 80.4445 ng/mL and 66.2777 ng/mL
[1]; PO 25 mg/kg, 8 hr, mean
  Plasma Concentration: 64.76 ng/mL
[1]; PO 25 mg/kg, 24 hr
  Plasma Concentration: 25.1348 ng/mL and 17.5136 ng/mL and 20.2154 ng/mL
[1]; PO 25 mg/kg, 24 hr, mean
  Plasma Concentration: 20.95 ng/mL
[1]; male rats, oral dose 25 mg/kg
  % F: 65%
  AUC(0-t): 7677 ± 328
  Cmax: 3751 ± 1068 ng/mL
  T1/2: 1.4 ± 0.1 h
[1]; oral dosing, rats
  oral bioavailability / oral pharmacokinetics in rats (in words): orally bioavailable
[1]; [5]
  AUC(0-t): 2318.88 µg·h/L and 2379.54 µg·h/L
  AUC(0-∞): 2319.77 ng·h/mL and 2379.62 ng·h/mL
  CLz: 36 mL/min/kg and 35 mL/min/kg
  Cmax: 5229.30 ng/mL and 5873.30 ng/mL
  MRT(0-∞): 1.51 h and 1.26 h
  T1/2: 2.54 h and 1.86 h
  Vz: 7.90 L/kg and 5.62 L/kg
[1]; [6]
  AUC(0-t): 2349.21 µg·h/L
  AUC(0-∞): 2349.69 ng·h/mL
  CLz: 35.5 mL/min/kg
  Cmax: 5551.30 ng/mL
  MRT(0-∞): 1.38 h
  T1/2: 2.20 h
  Vz: 6.76 L/kg
[1]; rats, PO 25 mg/kg vs IV 5 mg/kg, animals and MEAN
  F: 65.45±2.77% and 62.81% and 65.22% and 68.34% and 65.45%
[1]; [7]
  AUC(0-t): 7378.78 µg·h/L and 7623.45 µg·h/L and 8028.71 µg·h/L
  AUC(0-∞): 7689.94 ± 325.86 ng·h/mL and 7378.81 ng·h/mL and 7662.25 ng·h/mL and 8028.76 ng·h/mL and 7689.94 ng·h/mL
  Cmax: 3332.19 ng/mL and 2957.44 ng/mL and 4965.7 ng/mL and 3751.78 ng/mL
  MRT(0-∞): 2.64 h and 2.67 h and 2.62 h
  T1/2: 1.36 h and 1.54 h and 1.40 h and 1.43 h
[1]; rats, PO 25 mg/kg, animals and MEAN, mean
  AUC(0-t): 7676.98 µg·h/L
[2]
  elimination rate from rat plasma (in words): similar
[3]; 0 min
  Microsomal stability, % remaining: 100.00%
[3]; 5 min
  Microsomal stability, % remaining: 102.63%
[3]; 10 min
  Microsomal stability, % remaining: 105.25%
[3]; 15 min
  Microsomal stability, % remaining: 109.19%
[3]; 30 min
  Microsomal stability, % remaining: 111.07%
[3]; 45 min
  Microsomal stability, % remaining: 104.13%
[3]; 60 min
  Microsomal stability, % remaining: 109.01%
[4]; 0 min
  Microsomal stability, % remaining: 100.00%
[4]; 5 min
  Microsomal stability, % remaining: 58.19%
[4]; 10 min
  Microsomal stability, % remaining: 40.59%
[4]; 15 min
  Microsomal stability, % remaining: 28.11%
[4]; 30 min
  Microsomal stability, % remaining: 18.61%
[4]; 45 min
  Microsomal stability, % remaining: 18.42%
[4]; 60 min
  Microsomal stability, % remaining: 18.38%
[4]; Table 16, 0 min
  % of compound remaining when incubated in rat liver microsomes: 100%
[4]; Table 16, 4 min
  % of compound remaining when incubated in rat liver microsomes: 76.6%
[4]; Table 16, 6 min
  % of compound remaining when incubated in rat liver microsomes: 64.3%
[4]; Table 16, 10 min
  % of compound remaining when incubated in rat liver microsomes: 57.3%
[4]; Table 16, 15 min
  % of compound remaining when incubated in rat liver microsomes: 51.9%
[4]; Table 16, 30 min
  % of compound remaining when incubated in rat liver microsomes: 49.3%
[4]; Table 17, 0 min
  % of compound remaining when incubated in rat liver microsomes: 100%
[4]; Table 17, 4 min
  % of compound remaining when incubated in rat liver microsomes: 76.6%
[4]; Table 17, 6 min
  % of compound remaining when incubated in rat liver microsomes: 64.3%
[4]; Table 17, 10 min
  % of compound remaining when incubated in rat liver microsomes: 57.3%
[4]; Table 17, 15 min
  % of compound remaining when incubated in rat liver microsomes: 51.9%
[4]; Table 17, 30 min
  % of compound remaining when incubated in rat liver microsomes: 49.3%
[4]; rat liver microsomes
  microsomal stability (in words): metabolized fairly rapidly
